# According to patent US6764855B2, “Fluorescent hplc assay for 20-hete and other p-450 metabolites of arachidonic acid” (MCW Research Foundation, priority 2000, dated 2004):
# Experiments:
# [1] = test system: P-4504A enzyme; test: P-4504A enzyme activity (20-HETE production) in renal cortical microsomes from treated rats; format: in vivo
# Excerpt: SHR and normotensive Sprague-Dawley rats were placed in special metabolic cages (model 650-00350; Nalgene, Rochester, N.Y.) that efficiently separated urine from food and feces and were allowed to equilibrate for 5 days. After 5 days, the food was withdrawn from the rat to prevent contamination of the urine sample and a 24-h control urine sample was collected on dry ice. After the control sample was collected, food was returned to the rats, and after a 2-day recovery period, the rats received an intraperitoneal injection of ABT (50 mg/kg) followed by a second (50 mg/kg) injection 12 h later. Two hours after administration of the first dose of ABT, food was withdrawn and a 24-h experimental urine sample was collected on dry ice. After the urine was collected, the rats were killed with pentobarbital sodium (100 mg/kg ip), and the kidneys were collected. The renal cortex was separated from the renal medulla, frozen in liquid nitrogen, and stored overnight for measurement of the renal metabolism of AA. Briefly, the renal cortex was homogenized in a 10 mM potassium phosphate buffer (pH 7.7) containing 250 mM sucrose, 1 mM EDTA, and 10 mM magnesium chloride, and microsomes were prepared by differential centrifugation. […] The radioactive products were monitored using a radioactive flow detector (model 120; Radiomatic Instrument, Tampa, Fla.).
# [2] = test system: urinary excretion of 20-HETE; test: Effect of an irreversible P-450 inhibitor on the urinary excretion of 20-HETE; format: in vivo, rats; settings: ABT 50 mg/kg ip, second 50 mg/kg injection 12 h later, 24-h urine vs control
# Experimental: To label the fatty acids, we resuspended samples, which were extracted and dried under argon, in 20 μl of acetonitrile containing 36.4 mM 2-(2,3-naphthalimino)ethyl trifluoromethanesulfonate. N,N-diisopropylethylamine (10 μl) was added to catalyze the reaction. The sample was reacted for 30 min at room temperature. The reactions were dried down under argon, resuspended in 1 ml of 20% acetonitrile:water, and applied to a Sep-Pak Vac column. The column was washed with 6 ml of 50% acetonitrile:water solution to remove unreacted dye and eluted with 500 μl of ethyl acetate. The eluent was dried under argon, and the samples were resuspended in 100 μl of the IPLC mobile phase (methanol:water:acetic acid, 82:18:0.1 vol/vol/vol). […] Fluorescence intensity was continuously monitored using a fluorescence detector (model L-7480; Hitachi, Naperville, Ill.) at a medium gain sensitivity. The amount of 20-HETE in the sample was determined by comparing the area of the 20-HETE peak to that of an internal standard. […]
# SHR and normotensive Sprague-Dawley rats were placed in special metabolic cages (model 650-00350; Nalgene, Rochester, N.Y.) that efficiently separated urine from food and feces and were allowed to equilibrate for 5 days. […] The radioactive products were monitored using a radioactive flow detector (model 120; Radiomatic Instrument, Tampa, Fla.).
structure (smiles),measurement,setting,value
"Nn1nnc2ccccc21 [ABT, 1-aminobenzotriazole]",20-HETE production by renal cortical microsomes,"[1]; microsomes from kidneys of ABT-treated SHR (n=4), vehicle 459±192",12±4 pmol●min^−1●mg^−1
same,20-HETE production by renal cortical microsomes,"[1]; microsomes from kidneys of ABT-treated Sprague-Dawley rats (n=5), vehicle 324±25",25±3 pmol●min^−1●mg^−1
same,fall in urinary excretion of 20-HETE after administration of ABT,[2]; SHR (n=4),65±10%
same,fall in urinary excretion of 20-HETE after administration of ABT,[2]; Sprague-Dawley rats (n=5),74±9%
